From paper PMC11997999, “Uncovering α-Selectivity for Liver X Receptor Agonists for Lipotoxic Cancer Therapies” (Journal of Medicinal Chemistry, 2025)

Assays:
[1] = target: T1, LXRα LBD (GST) (Homo sapiens, UniProt Q13133); assay: Time-resolved LXR FRET assay (LanthaScreen TR-FRET LXRα Coactivator Assay Kit); type: biochemical; details: 5 nM LXRα LBD (GST), read after 6 h; R^2 of fit given; read-out: TR-FRET activity (EC50) LXRα
T1 construct: 5 nM LXRα LBD (GST); 10 nM LXRβ LBD (GST); purchased ThermoFisher Scientific PV4655
T1 sequence (Q13133 209-447 limits assumed): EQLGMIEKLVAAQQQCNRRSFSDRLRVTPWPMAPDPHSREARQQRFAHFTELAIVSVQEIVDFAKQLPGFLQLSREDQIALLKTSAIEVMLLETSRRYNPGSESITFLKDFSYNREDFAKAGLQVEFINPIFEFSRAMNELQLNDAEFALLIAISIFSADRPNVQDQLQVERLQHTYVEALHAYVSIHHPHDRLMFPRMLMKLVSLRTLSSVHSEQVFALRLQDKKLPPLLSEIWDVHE
Procedure: (§1) The biochemical TR-FRET assays were performed using the LanthaScreen TR-FRET LXRα Coactivator Assay Kit, goat (ThermoFisher Scientific, PV4655), and the LanthaScreen TR-FRET LXRβ assay kit, goat (ThermoFisher Scientific, PV4658), according to the manufacturer’s instructions using the following concentrations: 5 nM LXRα LBD (GST); 10 nM LXRβ LBD (GST); 500 nM fluorescein-TRAP220/DRIP-2; 200 nM fluorescein-D22; 10 nM Tb anti-GST antibody. The TR-FRET signals were measured after 6 h using a TECAN SPARK multimode microplate reader with the following settings: first excitation wavelength: 360 nm (bandwidth 35 nm), first emission wavelength: 485 nm (bandwidth 20 nm); second excitation wavelength: 360 nm (bandwidth 35 nm), second emission wavelength: 535 nm (bandwidth 25 nm); integration time: 200 μs; lag time: 100 μs; settle time: 0 ms.

[2] = system: VDR, PPARα, PPARγ, ERα, ERβ, FXR, AhR, mCAR; assay: Nuclear receptor panel screening, luciferase reporter assays in HepG2 cells; type: cell-based; details: HepG2, 10 μM, 24 h
Procedure: To examine the specificity of compound 40 (and as a control compound 46) toward other nuclear receptors, we assessed their activity in activating eight critical nuclear receptors with cellular reporter assays at saturating concentrations (10 μM). We chose nuclear receptors that are either known to directly or indirectly regulate metabolic processes in the liver, including vitamin D receptor (VDR), peroxisome proliferator-activated receptors α and γ (PPAR α and γ), estrogen receptor α and β (ERα and β) and farnesoid X receptor (FXR) or are relevant in drug metabolism such as aryl hydrocarbon receptor (AhR) and the mice constitutive androstane receptor (mCAR).
For nuclear receptor panel screening, the HepG2 cell line (obtained by American Type Culture Collection) was maintained in DMEM (Gibco) supplemented with 10% FBS+ 1% nonessential amino acids medium and incubated at 37 °C. Plasmids for mouse constitutive androstane receptor (mCAR) and its luciferase gene reporter construct p2B6-luc have been described in Mejdrová et al.[24] Other luciferase reporter constructs have been described in Stefela et al.[25] The transient transfection experiments were performed on 48-well format plates 24 h after cell seeding (1.1 × 10^5 per well). The Lipofectamine 3000 transfection reagent was used according to the manufacturer’s instructions. […]

[3] = target: T2, LXRβ (Homo sapiens, UniProt P55055); assay: LXRβ-specific LXRE-GFP reporter assay in Hep3B cells (NR1H3 knockout); type: cell-based; details: 48h of treatment, GFP by FACS
T2 construct: To measure the activity of the remaining isoform under treatment; endogenous in cells; host or cells: Hep3B (NR1H3 knockout, LXRE-GFP reporter)
T2 sequence (P55055 1-460): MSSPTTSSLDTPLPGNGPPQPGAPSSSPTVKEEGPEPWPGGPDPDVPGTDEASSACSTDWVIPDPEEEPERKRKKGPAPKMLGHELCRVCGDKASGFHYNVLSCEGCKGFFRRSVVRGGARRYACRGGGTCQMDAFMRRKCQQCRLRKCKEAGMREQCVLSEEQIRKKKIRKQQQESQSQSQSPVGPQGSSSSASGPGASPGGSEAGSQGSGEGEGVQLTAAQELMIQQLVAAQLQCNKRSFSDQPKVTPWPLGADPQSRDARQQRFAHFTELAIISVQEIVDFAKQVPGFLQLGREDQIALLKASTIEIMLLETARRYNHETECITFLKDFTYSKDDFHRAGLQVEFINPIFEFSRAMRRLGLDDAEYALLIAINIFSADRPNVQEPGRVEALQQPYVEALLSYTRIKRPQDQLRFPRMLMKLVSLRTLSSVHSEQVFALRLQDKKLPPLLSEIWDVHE

[4] = target: T3, LXRβ LBD (GST) (Homo sapiens, UniProt P55055); assay: Time-resolved LXR FRET assay (LanthaScreen TR-FRET LXRβ assay kit); type: biochemical; details: 10 nM LXRβ LBD (GST), read after 6 h; R^2 of fit given; read-out: TR-FRET activity (EC50) LXRβ
T3 construct: 5 nM LXRα LBD (GST); 10 nM LXRβ LBD (GST); purchased ThermoFisher Scientific PV4658
T3 sequence (P55055 222-460 limits assumed): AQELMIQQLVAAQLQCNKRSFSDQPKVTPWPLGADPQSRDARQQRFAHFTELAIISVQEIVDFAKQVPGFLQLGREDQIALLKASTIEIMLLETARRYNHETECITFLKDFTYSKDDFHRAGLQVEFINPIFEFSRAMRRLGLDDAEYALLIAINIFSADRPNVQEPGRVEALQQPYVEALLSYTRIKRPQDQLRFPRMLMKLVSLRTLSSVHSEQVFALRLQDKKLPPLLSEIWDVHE
Procedure: as §1

EC50 [1]: 42 nM
EC50 [3]: 631 nM
EC50 [4]: 266 nM
Structure (SMILES): O=C1C(Nc2ccc(N3CCCCC3)cc2)=C(c2ccccc2)C(=O)N1Cc1ccccc1 [Compound 40, 1-Benzyl-3-phenyl-4-((4-(piperidin-1-yl)phenyl)amino)-1H-pyrrole-2,5-dione]
activation of eight other nuclear receptors [2]: no relevant activation
